# Measured values reported in US20110212997A1, “PIPERIDINE-4-ACETAMIDE DERIVATIVES AND THEIR USE AS MONOAMINE NEUROTRANSMITTER RE-UPTAKE INHIBITORS” (NEUROSEARCH A/S, priority 2008, published 2011).
# Counter-ions that a name gives are not always drawn.
row,SMILES,melting point
1,"CCN(C(=O)CC1CCNCC1)c1ccc(Cl)c(Cl)c1Cl (as salt: fumaric acid salt) [Compound C10, N-Ethyl-2-piperidin-4-yl-N-(2,3,4-trichloro-phenyl)-acetamide]",62 to 64 °C
2,"CCN(C(=O)CC1CCNCC1)c1ccc(Br)c(Br)c1 (as salt: fumaric acid salt) [Compound C11, N-(3,4-Dibromo-phenyl)-N-ethyl-2-piperidin-4-yl-acetamide]",58 to 60 °C
3,"CCCN(C(=O)CC1CCNCC1)c1ccc(Cl)c(Cl)c1 (as salt: fumaric acid salt) [Compound C12, N-(3,4-Dichloro-phenyl)-2-piperidin-4-yl-N-propyl-acetamide]",55 to 58 °C
4,"CCN(C(=O)CC1CCNCC1)c1ccc(Cl)c(Br)c1 (as salt: fumaric acid salt) [Compound C13, N-(3-Bromo-4-chloro-phenyl)-N-ethyl-2-piperidin-4-yl-acetamide]",141 to 143 °C
5,"CCN(C(=O)CC1CCN(C)CC1)c1cccc2ccccc12 (as salt: fumaric acid salt) [Compound D3, N-Ethyl-2-(1-methyl-piperidin-4-yl)-N-naphthalen-1-yl-acetamide]",63 to 66 °C
6,"CCN(C(=O)CC1CCN(C)CC1)c1ccc(Cl)c(Cl)c1 (as salt: hydrochloric acid salt) [Compound D1, N-(3,4-Dichloro-phenyl)-N-ethyl-2-(1-methyl-piperidin-4-yl)-acetamide]",153 to 155 °C

# Next, values leading:
row,melting point,SMILES
1,159 to 161 °C,"CCN(C(=O)CC1CCNCC1)c1ccc(Br)c(Cl)c1 (as salt: fumaric acid salt) [Compound D4, N-(4-Bromo-3-chloro-phenyl)-N-ethyl-2-piperidin-4-yl-acetamide]"
2,112 to 114 °C,"CCN(C(=O)CC1CCNCC1)c1ccc(Cl)cc1Cl (as salt: fumaric acid salt) [Compound D5, N-(2,4-Dichloro-phenyl)-N-ethyl-2-piperidin-4-yl-acetamide]"
3,180 to 183 °C,"CN1CCC(CC(=O)Nc2ccc(Cl)c(Cl)c2)CC1 (as salt: fumaric acid salt) [Compound D6, N-(3,4-Dichloro-phenyl)-2-(1-methyl-piperidin-4-yl)-acetamide]"
4,51 to 53 °C,"CCN(C(=O)CC1CCN(C)CC1)c1cccc(Cl)c1Cl (as salt: fumaric acid salt) [Compound D8, N-(2,3-Dichloro-phenyl)-N-ethyl-2-(1-methyl-piperidin-4-yl)-acetamide]"
5,57 to 59 °C,"CN1CCC(CC(=O)N(C)c2ccc(Cl)c(Cl)c2)CC1 (as salt: fumaric acid salt) [Compound D12, N-(3,4-Dichloro-phenyl)-N-methyl-2-(1-methyl-piperidin-4-yl)-acetamide]"
6,175 to 177 °C,"CCN(C(=O)CC1CCN(C)CC1)c1ccc(Cl)cc1Cl (as salt: fumaric acid salt) [Compound D14, N-(2,4-Dichloro-phenyl)-N-ethyl-2-(1-methyl-piperidin-4-yl)-acetamide]"
7,167 to 169 °C,"CCN(C(=O)CC1CCN(C)CC1)c1c(Cl)cccc1Cl (as salt: fumaric acid salt) [Compound D16, N-(2,6-Dichloro-phenyl)-N-ethyl-2-(1-methyl-piperidin-4-yl)-acetamide]"
8,181 to 183 °C,"CCN(C(=O)CC1CCN(C)CC1)c1ccc(Cl)c(Cl)c1Cl (as salt: fumaric acid salt) [Compound D18, N-Ethyl-2-(1-methyl-piperidin-4-yl)-N-(2,3,4-trichloro-phenyl)-acetamide]"
9,144 to 146 °C,"CCCN(C(=O)CC1CCN(C)CC1)c1ccc(Cl)c(Cl)c1 (as salt: fumaric acid salt) [Compound D20, N-(3,4-Dichloro-phenyl)-2-(1-methyl-piperidin-4-yl)-N-propyl-acetamide]"
